Values quoted from earlier work as cited in patent US20090022799A1, “COMPOSITIONS THAT CONTAIN BETA-GLUCAN TO BE USED FOR THE PREVENTION AND TREATMENT OF DISEASE AND METHODS FOR THEIR USE” (priority 2006, published 2009).
Counter-ions that a name gives are not always drawn.

Tests used:
[1] = forms a suspension in aqueous solution
[2] = human clinical trials
[3] = β-Glucan particles

solubility in water [1] | median particle size [3] | Compound | safety and tolerability [2]
limited solubility |  | [H]/N=C(\N/C(=N/[H])NCCCCCCNC(=N)NC(=N)Nc1ccc(Cl)cc1)Nc1ccc(Cl)cc1 [Chlorhexidine hydrochloride, chlorhexidine hydrochloride, reference compound] | 
insoluble | 3.7-4.6 μm | Beta-(1→3)-d-Glucan [β-Glucan] | safe and well-tolerated
